# Activity calls are given as the source filed them.
# Columns and labels:
# [1] = toxicity toward HepG2 liver cells – cell-based, plate reader, cherry-pick, antagonist series, cytotoxicity control, dose response (AID 743416); type: functional
# [2] = A549 cell cytotoxicity, dose response, cytotoxicity control, plate reader, cherry-pick, antagonist series (AID 743412); type: functional, cell-based
# [3] = viability loss in HEK293 cells – cell-based, plate reader, cherry-picked samples, cytotoxicity control, dose response (AID 743446); type: functional
# [4] = blockade of melanocortin 4 receptor signaling – cell-based, plate reader, cherry pick, counter-screen for LGR2 antagonist project, dose response (AID 743444); type: functional;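 also: transfected HEK 293 cells stimulated with alpha-MSH peptide; potency of inhibitors of the alpha-MSH evoked signal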
# Prothrombin = Prothrombin (Homo sapiens, UniProt P00734); test: Thrombin 1536 HTS Dose Response Confirmation. [Related pubchem assays: 1046 (Thrombin 1536 HTS; hits were confirmed in this assay)]; type: functional
# [5] = molecular target: T1, Replicative DNA helicase DnaB (Mycobacterium tuberculosis, UniProt P9WMR3); test: DnaB intein splicing inhibitors, dose response, biochemical, cell-free fluorescence (AID 449749); type: functional
# T1 sequence (P9WMR3 whole entry): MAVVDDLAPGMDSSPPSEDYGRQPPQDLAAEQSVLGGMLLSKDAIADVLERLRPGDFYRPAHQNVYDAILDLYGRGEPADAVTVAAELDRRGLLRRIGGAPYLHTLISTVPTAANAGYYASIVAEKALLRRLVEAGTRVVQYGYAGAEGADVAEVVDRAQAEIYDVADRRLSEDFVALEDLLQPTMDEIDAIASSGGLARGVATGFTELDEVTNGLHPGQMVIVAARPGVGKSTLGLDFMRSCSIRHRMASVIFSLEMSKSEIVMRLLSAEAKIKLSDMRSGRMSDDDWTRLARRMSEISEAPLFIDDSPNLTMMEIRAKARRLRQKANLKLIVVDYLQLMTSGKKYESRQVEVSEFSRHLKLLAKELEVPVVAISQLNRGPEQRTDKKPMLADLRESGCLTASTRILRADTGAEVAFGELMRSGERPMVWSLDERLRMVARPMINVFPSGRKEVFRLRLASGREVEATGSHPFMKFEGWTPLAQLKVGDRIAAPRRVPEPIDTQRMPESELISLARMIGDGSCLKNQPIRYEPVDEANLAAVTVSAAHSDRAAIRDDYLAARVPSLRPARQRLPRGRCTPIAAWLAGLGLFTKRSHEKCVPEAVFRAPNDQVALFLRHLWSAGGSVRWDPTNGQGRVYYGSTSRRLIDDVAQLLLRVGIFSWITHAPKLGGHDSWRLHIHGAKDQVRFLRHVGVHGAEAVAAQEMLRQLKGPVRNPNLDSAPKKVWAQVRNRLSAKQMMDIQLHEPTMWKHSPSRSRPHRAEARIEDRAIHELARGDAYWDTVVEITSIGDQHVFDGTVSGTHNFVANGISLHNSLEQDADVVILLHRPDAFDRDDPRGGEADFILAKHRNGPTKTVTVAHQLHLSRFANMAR
# [6] = molecular target: T2, Trace amine-associated receptor 1 (Homo sapiens, UniProt Q96RJ0); test: Counterscreen for agonists of the human trace amine associated receptor 1 (hTAAR1): Fluorescence-based cell-based high throughput dose response assay to identify hTAAR1 agonist that also desensitize TAAR1 receptor response.; type: functional
# T2 sequence (Q96RJ0 whole entry): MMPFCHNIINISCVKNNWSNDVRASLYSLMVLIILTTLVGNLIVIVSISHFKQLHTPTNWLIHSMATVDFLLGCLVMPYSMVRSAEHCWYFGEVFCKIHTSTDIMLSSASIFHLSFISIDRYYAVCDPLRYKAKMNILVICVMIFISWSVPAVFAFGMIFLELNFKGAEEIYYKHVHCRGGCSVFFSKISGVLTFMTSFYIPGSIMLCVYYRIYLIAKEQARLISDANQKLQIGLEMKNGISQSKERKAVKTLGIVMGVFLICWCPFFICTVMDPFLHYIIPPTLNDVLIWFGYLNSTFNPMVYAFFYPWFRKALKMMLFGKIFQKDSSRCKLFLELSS
# [7] = microbe, parasite or virus in culture; type: functional; conditions: Mycobacterium tuberculosis
# cells [8] = type: functional, cell-based
# cells [9] = type: functional, cell-based; remark: listed apart in the source
# [10] = Trypanosoma cruzi growth suppression in host cells – NIH3T3 host cells, beta-gal luminescence, confirmation (AID 2044); type: functional, cell-based;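 also: intracellular parasites grown in NIH/3T3 mouse fibroblasts as host cells; luminescent beta-galactosidase reporter signal from transgenic T. cruzi replicating inside host cells; inhibitors lower the luminescence signal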
# [11] = molecular target: T2, Trace amine-associated receptor 1; test: Fluorescence-based cell-based high throughput dose response assay to identify agonists of the human trace amine associated receptor 1 (TAAR1).; type: functional
# [12] = NIH3T3 cell viability loss – ATP luminescence, mouse fibroblasts, counter-screen, dose response (AID 2010); type: functional, cell-based;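 also: cells exposed to compound for about 90 hours before reading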
# Protein RecA = molecular target: T3, Protein RecA (Mycobacterium tuberculosis, UniProt P9WHJ3); test: Fluorescence Cell-Free Homogeneous Dose Retest to Identify Inhibitors of RecA-Intein Splicing Activity. [Related pubchem assays (depositor defined):AID2097, AID2223, AID489010, AID492950]; type: functional
# T3 sequence (P9WHJ3 whole entry): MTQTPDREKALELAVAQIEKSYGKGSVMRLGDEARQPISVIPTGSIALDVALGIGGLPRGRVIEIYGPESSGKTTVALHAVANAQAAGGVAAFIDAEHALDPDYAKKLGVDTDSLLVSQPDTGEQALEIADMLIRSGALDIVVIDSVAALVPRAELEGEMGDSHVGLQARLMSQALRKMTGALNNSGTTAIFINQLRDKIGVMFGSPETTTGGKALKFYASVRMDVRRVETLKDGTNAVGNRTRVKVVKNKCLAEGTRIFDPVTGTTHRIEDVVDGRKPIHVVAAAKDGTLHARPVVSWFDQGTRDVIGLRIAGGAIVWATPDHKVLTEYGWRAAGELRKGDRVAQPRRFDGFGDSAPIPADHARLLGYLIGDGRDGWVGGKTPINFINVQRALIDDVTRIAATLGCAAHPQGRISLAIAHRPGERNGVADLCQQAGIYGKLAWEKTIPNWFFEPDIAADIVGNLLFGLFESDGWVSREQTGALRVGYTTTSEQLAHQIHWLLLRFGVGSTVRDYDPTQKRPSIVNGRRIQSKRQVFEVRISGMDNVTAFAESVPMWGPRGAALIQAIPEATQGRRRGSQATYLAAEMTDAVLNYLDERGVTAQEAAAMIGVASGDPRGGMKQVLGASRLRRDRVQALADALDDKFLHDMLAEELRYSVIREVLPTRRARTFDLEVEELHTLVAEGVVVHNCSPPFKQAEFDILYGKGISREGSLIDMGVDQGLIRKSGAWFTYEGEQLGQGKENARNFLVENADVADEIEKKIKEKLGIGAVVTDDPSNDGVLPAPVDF
# [13] = molecular target: T4, Oxysterols receptor LXR-beta (Homo sapiens, UniProt P55055); type: functional, cell-based;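 also: agonist activity at LXR measured by a cell-based luminescence readout across a dose range, run as a counterscreen for daf-12 agonists; HEK293 cells with Gal4-LXR fusion and GAL4-driven luciferase reporter; potency for activation of Gal4-LXR reporter so compounds are agonists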
# T4 sequence (P55055 whole entry): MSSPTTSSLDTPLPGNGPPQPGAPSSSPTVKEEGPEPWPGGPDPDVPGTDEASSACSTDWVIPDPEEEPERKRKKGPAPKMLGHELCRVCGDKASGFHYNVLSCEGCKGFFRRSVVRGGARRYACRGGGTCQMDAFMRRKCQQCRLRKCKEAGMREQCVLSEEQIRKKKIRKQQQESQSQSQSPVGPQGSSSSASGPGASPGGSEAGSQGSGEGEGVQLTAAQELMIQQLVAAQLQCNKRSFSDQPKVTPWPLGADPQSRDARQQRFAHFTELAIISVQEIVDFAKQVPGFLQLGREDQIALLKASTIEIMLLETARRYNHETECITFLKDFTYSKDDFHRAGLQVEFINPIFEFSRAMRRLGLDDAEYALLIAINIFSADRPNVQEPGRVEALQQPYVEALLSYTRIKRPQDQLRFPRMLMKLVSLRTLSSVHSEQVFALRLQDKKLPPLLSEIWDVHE
# Caspase-6 = molecular target: T5, Caspase-6 (Homo sapiens, UniProt P55212); test: inhibition of CASP6 peptide cleavage – biochemical, VEID-R110 fluorescence, cherry-pick, dose response (AID 720632)
# T5 sequence (P55212 whole entry): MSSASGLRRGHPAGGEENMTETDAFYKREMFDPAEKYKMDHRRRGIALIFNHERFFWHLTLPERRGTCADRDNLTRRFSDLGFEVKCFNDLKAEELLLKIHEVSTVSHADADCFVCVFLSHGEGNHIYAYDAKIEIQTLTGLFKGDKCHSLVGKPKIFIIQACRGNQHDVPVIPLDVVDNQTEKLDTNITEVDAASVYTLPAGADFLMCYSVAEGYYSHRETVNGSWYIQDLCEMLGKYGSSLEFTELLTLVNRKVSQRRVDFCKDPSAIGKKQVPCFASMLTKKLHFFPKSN
# [14] = molecular target: FAD-linked sulfhydryl oxidase ALR (Homo sapiens, UniProt P55789); test: ALR-catalysed DTT oxidation blockers – biochemical, H2O2 detection, luminescence, cherry-pick, dose response (AID 493248)
# [15] = Luminescence Cell-Based Dose Response HTS to Identify Inhibitors of 5'UTR Stem-Loop Driven Prion Protein mRNA Translation in H4 Neuroglioblastoma Cells. [Related pubchem assays: 1827 (Project Summary), 1813 (Primary HTS)]; type: functional
# [16] = luciferase reporter signal suppression in cells – H4 neuroglioma cells, luminescence, dose response (AID 1990); type: functional, cell-based
# Large T antigen = Large T antigen (Simian virus 40, UniProt P03070); type: functional, Betapolyomavirus macacae;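 also: Confirmatory-stage PubChem screen for compounds that inhibit SV40 T antigen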
# [17] = alpha-synuclein stem-loop luciferase translation blockers – H4 neuroglioma cells, luminescence, confirmation (AID 1988); type: functional, cell-based
# [18] = blockers of bursicon-stimulated LGR2 cAMP reporter – cell-based, HEK293, CRE-luciferase reporter, cherry pick, set 2, dose response (AID 743343); type: functional;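 also: transfected cells were stimulated with diluted bursicon conditioned medium after compound addition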
# [19] = reduction of Shn3 3'UTR-driven luciferase in osteoblasts – cell-based, Clone20 osteoblasts, firefly luciferase, cherry-picked, dose response (AID 624132); type: functional;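 also: firefly luciferase luminescence from reporter carrying the Shn3 3'UTR in osteoblasts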
# [20] = loss of viability in HepG2 cells – cell-based, CellTiter-Glo, cherry-picked, cytotoxicity control for Shn3 inhibitor project, dose response (AID 624134); type: functional
# [21] = non-specific 3'UTR reporter inhibition in Clone20-Shn3RL – cell-based, Renilla luciferase, cherry-picked, counter-screen for Shn3 inhibitor project, dose response (AID 624133); type: functional
# Chain of FAD-linked sulfhydryl oxidase ALR (P55789 whole entry): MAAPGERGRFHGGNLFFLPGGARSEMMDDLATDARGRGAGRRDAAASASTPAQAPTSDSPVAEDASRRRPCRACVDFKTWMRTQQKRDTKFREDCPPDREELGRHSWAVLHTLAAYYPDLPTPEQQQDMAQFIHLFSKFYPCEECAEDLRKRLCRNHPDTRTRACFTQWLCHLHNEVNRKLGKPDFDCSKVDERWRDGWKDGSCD
# Chain of Large T antigen (P03070 whole entry): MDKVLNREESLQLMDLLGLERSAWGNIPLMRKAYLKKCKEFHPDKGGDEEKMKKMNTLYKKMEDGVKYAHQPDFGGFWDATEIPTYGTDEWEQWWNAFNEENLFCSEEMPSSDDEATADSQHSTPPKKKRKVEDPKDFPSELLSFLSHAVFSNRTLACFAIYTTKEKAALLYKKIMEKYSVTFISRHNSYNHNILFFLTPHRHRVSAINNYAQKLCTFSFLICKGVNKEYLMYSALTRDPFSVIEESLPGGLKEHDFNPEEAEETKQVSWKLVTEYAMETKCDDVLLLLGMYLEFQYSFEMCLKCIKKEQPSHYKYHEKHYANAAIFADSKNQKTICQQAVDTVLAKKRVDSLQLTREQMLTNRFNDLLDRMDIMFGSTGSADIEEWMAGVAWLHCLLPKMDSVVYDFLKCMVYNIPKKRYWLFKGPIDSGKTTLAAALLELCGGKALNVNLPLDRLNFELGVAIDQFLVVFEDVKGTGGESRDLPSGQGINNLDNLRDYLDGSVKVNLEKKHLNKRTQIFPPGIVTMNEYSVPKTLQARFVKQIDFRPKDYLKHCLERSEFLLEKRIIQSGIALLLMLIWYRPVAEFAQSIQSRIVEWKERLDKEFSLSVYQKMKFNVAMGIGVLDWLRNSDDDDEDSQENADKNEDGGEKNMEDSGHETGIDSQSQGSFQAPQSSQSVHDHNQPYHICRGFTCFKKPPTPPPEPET
smiles,measurement,setting,value
CC1CCN(C(=O)c2ccc(S(=O)(=O)Cc3cc(F)ccc3F)c([N+](=O)[O-])c2)CC1,AC50,[1],> 52 µM (inactive)
same,AC50,[2],25.4 µM (active)
same,AC50,[3],31.7 µM (active)
same,AC50,[4],53.6 µM (active)
COc1cccc(NC(=S)N(CCCN2CCCC2)Cc2ccco2)c1,IC50,Prothrombin,> 50 µM (inconclusive)
OC(COC(c1ccc(Cl)cc1)c1ccc(Cl)cc1)CN1CCc2ccccc2C1 (centres undefined),AC50,[5],2.26 µM (active)
same,IC50,[6],9.26 µM (active)
same,CC50,[7],34.7 µM (active)
same,IC50,cells [8],12.1 µM (inactive)
same,EC50,cells [9],> 29.9 µM (inactive)
same,EC50,[10],2.16 µM (active)
same,EC50,[11],2.13 µM (active)
same,EC50,[12],> 60 µM (inconclusive)
same,EC50,Protein RecA,81.5 µM (active)
Cc1cnc(NC(=O)COc2ccc3c(c2)CCC3)s1,EC50,[13],> 67.6 µM (inactive)
O=C(O)c1ccc(N=Nc2c(O)[nH]c3cc(Cl)ccc23)cc1,AC50,Caspase-6,49.4 µM (active)
O=C(O)C1C2CCC(C2)C1C(=O)NCCC1=CCCCC1 (centres undefined),IC50,[6],> 29.9 µM (inactive)
same,IC50,cells [8],> 29.9 µM (inactive)
same,EC50,cells [9],> 29.9 µM (inactive)
same,EC50,[11],6.32 µM (active)
COCC(=O)n1nc(-c2ccc(C)cc2)nc1NCc1ccc(F)cc1,IC50,Prothrombin,0.502 µM (active)
CC(=O)n1nc(-c2ccc(C)cc2)nc1NCc1ccc(F)cc1,IC50,Prothrombin,0.373 µM (active)
CC(C)C(=O)n1nc(-c2cccnc2)nc1NCc1cccs1,IC50,Prothrombin,0.006 µM (active)
COc1cccc(NC(=N)N)c1,IC50,[6],5.04 µM (active)
same,IC50,cells [8],> 29.9 µM (inactive)
same,EC50,cells [9],> 29.9 µM (inactive)
same,EC50,[11],1.87 µM (active)
CCN1C(=O)/C(=C/Nc2ccccc2)SC1=S,EC50,[13],> 67.5 µM (inactive)
Nc1ccc(OC(=O)Nc2ccc(O)cc2)cc1,AC50,Caspase-6,18.7 µM (active)
same,AC50,[14],1.38 µM (active)
same,EC50,[15],11.7 µM (active)
same,EC50,[16],11.2 µM (active)
same,IC50,Large T antigen,6.52 µM (active)
same,EC50,[17],9.76 µM (active)
C/C(=C\C(=O)c1sccc1Cl)N(C)C,EC50,[13],> 67.6 µM (inactive)
Nc1c2c(nc3sc4c(c13)CCCC4)CCCCC2,EC50,[13],> 67.6 µM (inactive)
O=C(COC(=O)Cc1ccccc1)Nc1cc(S(=O)(=O)N2CCCCC2)ccc1Cl,AC50,Caspase-6,38.3 µM (active)
COc1cc(/C=C2\SC(=S)N(CC(=O)O)C2=O)ccc1OS(=O)(=O)c1ccc(C)cc1,AC50,Caspase-6,46.2 µM (active)
same,AC50,[14],2.07 µM (active)
Nc1cc2cccnc2cc1Cl,AC50,Caspase-6,25.6 µM (active)
Cc1cccc(C)c1-n1nnnc1C(c1cc2ccccc2o1)N1CCC(n2c(O)nc3ccccc32)CC1 (centres undefined),AC50,[1],1.98 µM (active)
same,AC50,[18],3.43 µM (active)
same,AC50,[2],6.22 µM (active)
same,AC50,[3],4.96 µM (active)
same,AC50,[19],3.05 µM (active)
same,AC50,[20],2.97 µM (active)
same,AC50,[4],3.33 µM (active)
same,AC50,[21],4.09 µM (active)
CCSCC(C)(C)n1[nH]c2ccccc2c1=O,EC50,[13],> 67.6 µM (inactive)
COc1ccccc1NC(=O)N1CCCCN2[C@@H](CO)[C@H](c3ccc(-c4cccc(F)c4)cc3)[C@@H]2C1,AC50,[1],19 µM (active)
same,AC50,[18],64.7 µM (active)
same,AC50,[2],18.6 µM (active)
same,AC50,[3],> 52 µM (inactive)
same,AC50,[4],52.2 µM (active)

# — ChEMBL document CHEMBL1201862, “PubChem BioAssay data set” (2004)
